The EC50 is the concentration at which the effect is half-maximal.

Each structure is given as a SMILES string.

For this assay, the target named is S1P1 (Homo sapiens, UniProt P21453). The assay is described as follows: 35S-GTPyS binding assay. It is filed as biochemical. Particulars: membranes; compounds at 0.1nM-10µM; 0.1nM 35S-GTPyS; 10µM S1P used as 100% maximum efficacy; 90 min at room temperature. The procedure: The effect of the compounds was measured using a 35S-GTPyS binding assay. Briefly, membranes were incubated in a buffer containing 20 mM HEPES pH 7.4, 100 mM NaCl, 10 mM MgCl2, 10µM GDP, 50µg/ml saponin and 0.2% fatty acid-free BSA at various concentrations (0.1nM-10µM) and 0.1nM 35S-GTPyS. 10µM S1P was used as 100% maximum efficacy. The assay was incubated for 90 min at room temperature with gentle mixing, and terminated by filtrating the reaction mixture through GF/C filter plates using the Manifold Filtration System. The filters were immediately washed with sodium phosphate pH 7.4 buffers. After drying the filter plate's scintillant liquid were added to each well and 35S-GTPyS binding was measured on a Trilux Scintillation Counter.
S1P1, sequence (P21453 whole entry, species assumed): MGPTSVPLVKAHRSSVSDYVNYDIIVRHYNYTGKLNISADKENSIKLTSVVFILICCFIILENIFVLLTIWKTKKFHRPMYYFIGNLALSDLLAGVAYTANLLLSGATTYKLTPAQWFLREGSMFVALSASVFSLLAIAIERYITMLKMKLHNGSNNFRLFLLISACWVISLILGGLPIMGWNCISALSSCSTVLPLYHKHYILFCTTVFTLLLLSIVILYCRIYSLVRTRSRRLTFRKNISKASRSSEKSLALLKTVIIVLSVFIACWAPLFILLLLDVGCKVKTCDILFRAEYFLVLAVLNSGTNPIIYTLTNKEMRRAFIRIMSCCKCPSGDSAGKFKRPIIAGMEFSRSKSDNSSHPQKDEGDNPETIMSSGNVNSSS
On to `CCCCN(Cc1ccccc1Cl)c1nnc(-c2cc(C)c(OC)c(C)c2)s1` [Example 1, N-Butyl-N-(2-chlorobenzyl)-5-(4-methoxy-3,5-dimethylphenyl)-1,3,4-thiadiazol-2-amine], for which the EC50 stood at 39 nM.

For `CCCCN(Cc1ccccc1F)c1nnc(-c2cc(C)c(OCCN3CC(C(=O)O)C3)c(C)c2)s1` [Example 35, 1-[2-(4-{5-[Butyl(2-fluorobenzyl)amino]-1,3,4-thiadiazol-2-yl}-2,6-dimethyl-phenoxy)ethyl]azetidine-3-carboxylic acid], the midpoint of the response, the EC50, lay at 33 nM.

Take `CCCCN(c1nnc(-c2ccc(CN3CC(C(=O)O)C3)cc2)s1)S(=O)(=O)Cc1ccccc1` [Example 43, 1-(4-{5-[(Benzylsulfonyl)(butyl)amino]-1,3,4-thiadiazol-2-yl}benzyl)azetidine-3-carboxylic acid]: the EC50 is 123 nM.

In the case of `CCCCN(Cc1c(Cl)cccc1Cl)c1nnc(-c2ccnc(C)c2)s1` [Example 16, N-Butyl-N-(2,6-dichlorobenzyl)-5-(2-methylpyridin-4-yl)-1,3,4-thiadiazol-2-amine], the response was half-maximal at 18 nM (EC50).

The compound `CCCCN(Cc1ccccc1Cl)c1nnc(-c2cc(C)c(OCC(O)CN)c(C)c2)s1` (stereo not shown) [Example 34, 1-Amino-3-(4-{5-[butyl(2-chlorobenzyl)amino]-1,3,4-thiadiazol-2-yl}-2,6-dimethyl-phenoxy)propan-2-ol] had an EC50 of 32 nM.

Compound `CCCCN(Cc1ccccc1F)c1nnc(-c2cc(C)c(OCCNCCC(=O)O)c(C)c2)s1` [Example 36, N-[2-(4-{5-[Butyl(2-fluorobenzyl)amino]-1,3,4-thiadiazol-2-yl}-2,6-dimethyl-phenoxy)ethyl]-beta-alanine] came in with an EC50 of 5 nM.

`CCCCN(Cc1ccccc1Cl)c1nnc(-c2cc(C)c(OC[C@H](O)CO)c(C)c2)s1` [Example 29, (2R)-3-(4-{5-[Butyl(2-chlorobenzyl)amino]-1,3,4-thiadiazol-2-yl}-2,6-dimethyl-phenoxy)propane-1,2-diol]: a half-maximal response (EC50) required 15 nM.

The values above are taken from patent EP2343287A1, “New 2-aminothiadiazole derivatives” (Almirall, S.A., priority 2009, dated 2011).
